From patent EP0041644B1 (priority 1980, dated 1981)

What was measured:
[1] = tested on: B16 Melanoma; test: B16 Melanoma - Test 1 (ip tumor brei); assay type: in vivo, mice; details: for Av. Wt. Change, g Day 5 / Effect MST % T/C / MST Days / Survivors Day 5(60): QD 1→9, vehicle Saline
[2] = tested on: L1210 Leukemia; test: L1210 Leukemia - Test 2; assay type: in vivo, mice

N.N.[Cl][Pt][Cl] [Cis-DDP, cis-diammine dichloroplatinum (II)]
Av. Wt. Change, g Day 5 ([1]; 0.8 mg/kg/day ip): -1.0 g
Effect MST % T/C ([1]; 0.8 mg/kg/day ip): 174 % T/C
MST Days ([1]; 0.8 mg/kg/day ip): 34.0 days
Av. Wt. Change, g Day 5 ([1]; 1.6 mg/kg/day ip): -4.3 g
Effect MST % T/C ([1]; 1.6 mg/kg/day ip): 36 % T/C
MST Days ([1]; 1.6 mg/kg/day ip): 7.0 days
Av. Wt. Change, g Day 5 ([1]; 2.0 mg/kg/day ip): -4.5 g
Effect MST % T/C ([1]; 2.0 mg/kg/day ip): 36 % T/C
MST Days ([1]; 2.0 mg/kg/day ip): 7.0 days
Survivors Day 5(60) ([1]; 0.8 mg/kg/day ip): 10/10
Survivors Day 5(60) ([1]; 1.6 mg/kg/day ip): 9/9
Survivors Day 5(60) ([1]; 2.0 mg/kg/day ip): 8/10
mice cured ([1]; ip B16, at the dose of maximum T/C): no cures
maximum T/C ([1]; ip B16, ip QD 1→9): 174%
Average Weight Change,g ([2]; 0.4 mg/kg/inj ip, qd 1→9): +1.6 g
Effect MST % T/C ([2]; 0.4 mg/kg/inj ip, qd 1→9): 100 % T/C
MST Days ([2]; 0.4 mg/kg/inj ip, qd 1→9): 7.0 days
Survivors Day 5(30) ([2]; 0.4 mg/kg/inj ip, qd 1→9): 6/6
Average Weight Change ([2]; 0.8 mg/kg/inj ip, qd 1→9): -0.7 g
Effect MST % T/C ([2]; 0.8 mg/kg/inj ip, qd 1→9): 107 % T/C
MST Days ([2]; 0.8 mg/kg/inj ip, qd 1→9): 7.5 days
Survivors Day 5(30) ([2]; 0.8 mg/kg/inj ip, qd 1→9): 6/6
Average Weight Change ([2]; 1.6 mg/kg/inj ip, qd 1→9): -2.2 g
Effect MST % T/C ([2]; 1.6 mg/kg/inj ip, qd 1→9): 157 % T/C
MST Days ([2]; 1.6 mg/kg/inj ip, qd 1→9): 11.0 days
Survivors Day 5(30) ([2]; 1.6 mg/kg/inj ip, qd 1→9): 6/6
Average Weight Change,g ([2]; 2 mg/kg/inj iv, d.1, 5 & 9): +1.7 g
Effect MST % T/C ([2]; 2 mg/kg/inj iv, d.1, 5 & 9): 100 % T/C
MST Days ([2]; 2 mg/kg/inj iv, d.1, 5 & 9): 7.0 days
Survivors Day 5(30) ([2]; 2 mg/kg/inj iv, d.1, 5 & 9): 6/6
Average Weight Change ([2]; 2.4 mg/kg/inj ip, qd 1→9): -3.3 g
Effect MST % T/C ([2]; 2.4 mg/kg/inj ip, qd 1→9): 214 % T/C
MST Days ([2]; 2.4 mg/kg/inj ip, qd 1→9): 15.0 days
Survivors Day 5(30) ([2]; 2.4 mg/kg/inj ip, qd 1→9): 6/6
Average Weight Change ([2]; 4 mg/kg/inj ip, d.1): -0.7 g
Effect MST % T/C ([2]; 4 mg/kg/inj ip, d.1): 136 % T/C
MST Days ([2]; 4 mg/kg/inj ip, d.1): 9.5 days
Survivors Day 5(30) ([2]; 4 mg/kg/inj ip, d.1): 6/6
Average Weight Change,g ([2]; 4 mg/kg/inj iv, d.1): +1.8 g
Effect MST % T/C ([2]; 4 mg/kg/inj iv, d.1): 100 % T/C
MST Days ([2]; 4 mg/kg/inj iv, d.1): 7.0 days
Survivors Day 5(30) ([2]; 4 mg/kg/inj iv, d.1): 6/6
Average Weight Change,g ([2]; 4 mg/kg/inj iv, d.1, 5 & 9): +0.8 g
Effect MST % T/C ([2]; 4 mg/kg/inj iv, d.1, 5 & 9): 100 % T/C
MST Days ([2]; 4 mg/kg/inj iv, d.1, 5 & 9): 7.0 days
Survivors Day 5(30) ([2]; 4 mg/kg/inj iv, d.1, 5 & 9): 6/6
Average Weight Change ([2]; 6 mg/kg/inj ip, d.1): -1.8 g
Effect MST % T/C ([2]; 6 mg/kg/inj ip, d.1): 171 % T/C
MST Days ([2]; 6 mg/kg/inj ip, d.1): 12.0 days
Survivors Day 5(30) ([2]; 6 mg/kg/inj ip, d.1): 6/6
Average Weight Change ([2]; 6 mg/kg/inj iv, d.1): -0.2 g
Effect MST % T/C ([2]; 6 mg/kg/inj iv, d.1): 114 % T/C
MST Days ([2]; 6 mg/kg/inj iv, d.1): 8.0 days
Survivors Day 5(30) ([2]; 6 mg/kg/inj iv, d.1): 6/6
Average Weight Change ([2]; 6 mg/kg/inj iv, d.1, 5 & 9): -1.1 g
Effect MST % T/C ([2]; 6 mg/kg/inj iv, d.1, 5 & 9): 164 % T/C
MST Days ([2]; 6 mg/kg/inj iv, d.1, 5 & 9): 11.5 days
Survivors Day 5(30) ([2]; 6 mg/kg/inj iv, d.1, 5 & 9): 6/6
Average Weight Change ([2]; 8 mg/kg/inj ip, d.1): -2.8 g
Effect MST % T/C ([2]; 8 mg/kg/inj ip, d.1): 186 % T/C
MST Days ([2]; 8 mg/kg/inj ip, d.1): 13.0 days
Survivors Day 5(30) ([2]; 8 mg/kg/inj ip, d.1): 6/6
Average Weight Change ([2]; 8 mg/kg/inj iv, d.1): -3.7 g
Effect MST % T/C ([2]; 8 mg/kg/inj iv, d.1): 129 % T/C
MST Days ([2]; 8 mg/kg/inj iv, d.1): 9.0 days
Survivors Day 5(30) ([2]; 8 mg/kg/inj iv, d.1): 6/6
Average Weight Change ([2]; 8 mg/kg/inj iv, d.1, 5 & 9): -2.1 g
Effect MST % T/C ([2]; 8 mg/kg/inj iv, d.1, 5 & 9): 179 % T/C
MST Days ([2]; 8 mg/kg/inj iv, d.1, 5 & 9): 12.5 days
Survivors Day 5(30) ([2]; 8 mg/kg/inj iv, d.1, 5 & 9): 6/6
Average Weight Change ([2]; 10 mg/kg/inj ip, d.1): -4.4 g
Effect MST % T/C ([2]; 10 mg/kg/inj ip, d.1): 214 % T/C
MST Days ([2]; 10 mg/kg/inj ip, d.1): 15.0 days
Survivors Day 5(30) ([2]; 10 mg/kg/inj ip, d.1): 6/6
